Laboratory results published in PubChem BioAssay (NCI).
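Exposure lasted 48 hours, with cells grown in 96-well plates and compounds tested at five concentrations. GI50: concentration for 50% inhibition of growth. TGI: concentration producing complete growth inhibition.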

Assays:
Experiment in all cases: NCI-60 cell line screen, 48 h
786-0 renal = tested on: 786-0 renal
A498 renal = tested on: A498 renal
A549 NSCLC = tested on: A549 NSCLC
ACHN renal = tested on: ACHN renal
BT-549 breast = tested on: BT-549 breast
CAKI-1 renal = tested on: CAKI-1 renal
CCRF-CEM leukemia = tested on: CCRF-CEM leukemia
COLO 205 colon = tested on: COLO 205 colon
DU-145 prostate = tested on: DU-145 prostate
EKVX NSCLC = tested on: EKVX NSCLC
HCC-2998 colon = tested on: HCC-2998 colon
HCT-116 colon = tested on: HCT-116 colon
HCT-15 colon = tested on: HCT-15 colon
HL-60(TB) leukemia = tested on: HL-60(TB) leukemia
HOP-62 NSCLC = tested on: HOP-62 NSCLC
HOP-92 NSCLC = tested on: HOP-92 NSCLC
HS 578T breast = tested on: HS 578T breast
HT29 colon = tested on: HT29 colon
IGROV1 ovarian = tested on: IGROV1 ovarian
K-562 leukemia = tested on: K-562 leukemia
KM12 colon = tested on: KM12 colon
LOX IMVI melanoma = tested on: LOX IMVI melanoma
M14 melanoma = tested on: M14 melanoma
MALME-3M melanoma = tested on: MALME-3M melanoma
MCF7 breast = tested on: MCF7 breast
MDA-MB-231 breast = tested on: MDA-MB-231 breast
MDA-MB-435 = tested on: MDA-MB-435
MOLT-4 leukemia = tested on: MOLT-4 leukemia
NCI-H226 lung = tested on: NCI-H226 lung
NCI-H23 lung = tested on: NCI-H23 lung
NCI-H460 lung = tested on: NCI-H460 lung
NCI-H522 lung = tested on: NCI-H522 lung
NCI/ADR-RES ovarian = tested on: NCI/ADR-RES ovarian
OVCAR-3 ovarian = tested on: OVCAR-3 ovarian
OVCAR-4 ovarian = tested on: OVCAR-4 ovarian
OVCAR-5 ovarian = tested on: OVCAR-5 ovarian
OVCAR-8 ovarian = tested on: OVCAR-8 ovarian
PC-3 prostate = tested on: PC-3 prostate
RPMI-8226 leukemia = tested on: RPMI-8226 leukemia
RXF 393 renal = tested on: RXF 393 renal
SF-268 CNS = tested on: SF-268 CNS
SF-295 CNS = tested on: SF-295 CNS
SF-539 CNS = tested on: SF-539 CNS
SK-MEL-2 melanoma = tested on: SK-MEL-2 melanoma
SK-MEL-28 melanoma = tested on: SK-MEL-28 melanoma
SK-MEL-5 melanoma = tested on: SK-MEL-5 melanoma
SK-OV-3 ovarian = tested on: SK-OV-3 ovarian
SN12C renal = tested on: SN12C renal
SNB-19 CNS = tested on: SNB-19 CNS
SNB-75 CNS = tested on: SNB-75 CNS
SR leukemia = tested on: SR leukemia
SW-620 colon = tested on: SW-620 colon
T-47D breast = tested on: T-47D breast
TK-10 renal = tested on: TK-10 renal
U251 CNS = tested on: U251 CNS
UACC-257 melanoma = tested on: UACC-257 melanoma
UACC-62 melanoma = tested on: UACC-62 melanoma
UO-31 renal = tested on: UO-31 renal

`CCN(CC)c1nc(-c2ccc(Cl)cc2Cl)nc2ccccc12` gave a GI50 (786-0 renal) of 22.2 µM, a TGI (786-0 renal) of 61.9 µM and a GI50 (A498 renal) of 0.702 µM. It also gave a TGI (A498 renal) of 7.63 µM, a GI50 (A549 NSCLC) of 17.1 µM and a TGI (A549 NSCLC) of 57.2 µM. It also gave a GI50 (ACHN renal) of 15.8 µM, a TGI (ACHN renal) of 50.4 µM and a GI50 (BT-549 breast) of 25.4 µM. For the same compound, the TGI (BT-549 breast) was 54.1 µM, the GI50 (CAKI-1 renal) was 16.5 µM and the TGI (CAKI-1 renal) was 62.4 µM. The GI50 (CCRF-CEM leukemia) was 10.4 µM, the TGI (CCRF-CEM leukemia) was over 100 µM and the GI50 (COLO 205 colon) was 19.5 µM. It also gave a TGI (COLO 205 colon) of 48.8 µM, a GI50 (DU-145 prostate) of 13.6 µM and a TGI (DU-145 prostate) of over 58.9 µM. The GI50 (EKVX NSCLC) was 0.333 µM, the TGI (EKVX NSCLC) was 5.05 µM and the GI50 (HCC-2998 colon) was 16.7 µM. It also gave a TGI (HCC-2998 colon) of 31.7 µM, a GI50 (HCT-116 colon) of 14.8 µM and a TGI (HCT-116 colon) of 29 µM. It also gave a GI50 (HCT-15 colon) of 19.3 µM, a TGI (HCT-15 colon) of 48.9 µM and a GI50 (HL-60(TB) leukemia) of 26.2 µM. It also gave a TGI (HL-60(TB) leukemia) of over 100 µM, a GI50 (HOP-62 NSCLC) of 17.3 µM and a TGI (HOP-62 NSCLC) of 35.6 µM. For the same compound, the GI50 (HOP-92 NSCLC) was 22 µM, the TGI (HOP-92 NSCLC) was 93.4 µM and the GI50 (HS 578T breast) was 8.82 µM. The TGI (HS 578T breast) was 35.1 µM, the GI50 (HT29 colon) was 37.6 µM and the TGI (HT29 colon) was over 100 µM. It also gave a GI50 (IGROV1 ovarian) of 25.9 µM, a TGI (IGROV1 ovarian) of over 100 µM and a GI50 (K-562 leukemia) of 30.8 µM. The TGI (K-562 leukemia) was over 100 µM, the GI50 (KM12 colon) was 20.2 µM and the TGI (KM12 colon) was 59.8 µM. The GI50 (LOX IMVI melanoma) was 17.1 µM, the TGI (LOX IMVI melanoma) was 36 µM and the GI50 (M14 melanoma) was 18 µM. For the same compound, the TGI (M14 melanoma) was 37.9 µM, the GI50 (MALME-3M melanoma) was 18.9 µM and the TGI (MALME-3M melanoma) was 49.7 µM. For the same compound, the GI50 (MCF7 breast) was 22.2 µM, the TGI (MCF7 breast) was over 68 µM and the GI50 (MDA-MB-231 breast) was 4.2 µM. For the same compound, the TGI (MDA-MB-231 breast) was 23.2 µM, the GI50 (MDA-MB-435) was 18.7 µM and the TGI (MDA-MB-435) was 48.3 µM. It also gave a GI50 (MOLT-4 leukemia) of 42.9 µM, a TGI (MOLT-4 leukemia) of over 100 µM and a GI50 (NCI-H226 lung) of 12.4 µM. It also gave a TGI (NCI-H226 lung) of 31.2 µM, a GI50 (NCI-H23 lung) of 22.8 µM and a TGI (NCI-H23 lung) of 62.8 µM. For the same compound, the GI50 (NCI-H460 lung) was 23.9 µM, the TGI (NCI-H460 lung) was over 79.5 µM and the GI50 (NCI-H522 lung) was 29.2 µM. It also gave a TGI (NCI-H522 lung) of over 74.9 µM, a GI50 (NCI/ADR-RES ovarian) of 23 µM and a TGI (NCI/ADR-RES ovarian) of over 71.1 µM. For the same compound, the GI50 (OVCAR-3 ovarian) was 15.7 µM, the TGI (OVCAR-3 ovarian) was 47.2 µM and the GI50 (OVCAR-4 ovarian) was 51.6 µM. For the same compound, the TGI (OVCAR-4 ovarian) was over 100 µM, the GI50 (OVCAR-5 ovarian) was 26.1 µM and the TGI (OVCAR-5 ovarian) was over 68.1 µM. It also gave a GI50 (OVCAR-8 ovarian) of 31.9 µM, a TGI (OVCAR-8 ovarian) of over 100 µM and a GI50 (PC-3 prostate) of 24.1 µM. For the same compound, the TGI (PC-3 prostate) was over 63.3 µM, the GI50 (RPMI-8226 leukemia) was 32.1 µM and the TGI (RPMI-8226 leukemia) was over 100 µM. For the same compound, the GI50 (RXF 393 renal) was 17.2 µM, the TGI (RXF 393 renal) was 42.5 µM and the GI50 (SF-268 CNS) was 23.1 µM. For the same compound, the TGI (SF-268 CNS) was over 68.8 µM, the GI50 (SF-295 CNS) was 22.8 µM and the TGI (SF-295 CNS) was 62.4 µM. The GI50 (SF-539 CNS) was 20.3 µM, the TGI (SF-539 CNS) was 41.9 µM and the GI50 (SK-MEL-2 melanoma) was over 41.8 µM. It also gave a TGI (SK-MEL-2 melanoma) of over 67.7 µM, a GI50 (SK-MEL-28 melanoma) of 31.8 µM and a TGI (SK-MEL-28 melanoma) of over 100 µM. It also gave a GI50 (SK-MEL-5 melanoma) of 17.8 µM, a TGI (SK-MEL-5 melanoma) of 33.3 µM and a GI50 (SK-OV-3 ovarian) of 26.5 µM. The TGI (SK-OV-3 ovarian) was over 79.9 µM, the GI50 (SN12C renal) was 17.2 µM and the TGI (SN12C renal) was 46.2 µM. For the same compound, the GI50 (SNB-19 CNS) was 40.8 µM, the TGI (SNB-19 CNS) was over 100 µM and the GI50 (SNB-75 CNS) was 43.9 µM. It also gave a TGI (SNB-75 CNS) of over 100 µM, a GI50 (SR leukemia) of 8.68 µM and a TGI (SR leukemia) of over 53.2 µM. It also gave a GI50 (SW-620 colon) of 15.5 µM, a TGI (SW-620 colon) of 34.4 µM and a GI50 (T-47D breast) of 18.1 µM. For the same compound, the TGI (T-47D breast) was 49.6 µM, the GI50 (TK-10 renal) was 23.8 µM and the TGI (TK-10 renal) was 63.3 µM. It also gave a GI50 (U251 CNS) of 18 µM, a TGI (U251 CNS) of 37.2 µM and a GI50 (UACC-257 melanoma) of 17.3 µM. The TGI (UACC-257 melanoma) was 50.7 µM, the GI50 (UACC-62 melanoma) was 13.7 µM and the TGI (UACC-62 melanoma) was 41.3 µM. For the same compound, the GI50 (UO-31 renal) was 24.9 µM and the TGI (UO-31 renal) was over 90.5 µM.
